Marks after values point to notes of the source that are not given here.
Experiments:
[1] = tested on: human males with secondary hypogonadism; experiment: Serum CTX (biomarker of bone resorption) by immunoassay; assay type: in vivo
Method: (§1) The effect of the isolated trans-clomiphene isomer on the serum level of biomarkers of bone resorption was assessed in human males with secondary hypogonadism.
(§2) Adult male subjects with a morning total testosterone blood level of <300 ng/dl and a serum LH of <15 IU/ml were administered either trans-clomiphene ([…] or 25 mg/day via oral capsule) or a topical testosterone gel (Testim®, 50 mg applied daily) over a three month period. Quantitative determination of baseline serum (circulating) estrogen (E2), dihydrotestosterone (DHT), sex hormone binding globulin (SHBG), P1NP-1 and CTX measurements were made in the subjects by immunoassay. Treatment with either trans-clomiphene (12.5 mg or 25 mg) or Testim® was then initiated. Follow-up measurements were taken at 3 weeks post initial dose, 6 months post initial dose and one month after cessation of treatment. The results are presented below at Table 1:
(§3) The effects of trans-clomiphene and Testim® on the level of serum biomarkers of bone formation (P1NP) and bone resorption (CTX) are illustrated at FIGS. 1 and 2. […] The lower levels of P1NP-1 at both trans-clomiphene doses are well within the normal range (15-80 μg/L). A decrease in CTX levels was also observed at both trans-clomiphene dosages; however, the decrease was much stronger at the 25 mg dose. […]

hypogonadal males = experiment: Total hip bone mineral density (BMD) by DEXA scan; assay type: in vivo, human; conditions: 6 months daily trans-clomiphene (12.5 mg, or up-titrated to 25 mg/day); 15 hypogonadal males; FIG. 3
Method: The effect of trans-clomiphene on total hip bone mineral density (BMD) was assessed by dual-energy x-ray absorptiometry (DEXA) scans in 15 hypogonadal males (morning testosterone less than 300 ng/dL) with body mass index (BMI) ranging between 25 and 42 and no evidence of bone disease (including ostepenia) prior to treatment. DEXA scans were performed prior to treatment with trans-clomiphene to determine baseline measurements and after 6 months of daily administration of trans-clomiphene. Four of the 15 subjects received 12.5 mg trans-clomiphene administered daily throughout the 6 month period. Eleven of the 15 subjects began at the 12.5 mg/day dose but were later up-titrated to 25 mg/day. Total hip BMD was also assessed in 25 placebo (control) subjects at the same time points. BMD measurements at the 6 month time point in both treated and control subjects were compared to baseline measurements.

[2] = tested on: human males with secondary hypogonadism; experiment: Serum hormone (DHT, E2) and SHBG levels by immunoassay in treated men; assay type: in vivo; conditions: for DHT / E2 / SHBG: serum
Method: as §1
as §2, with “Follow-up measurements were taken at 3 weeks post initial dose, 6 months post initial dose and one month after cessation of treatment. The results are presented below at Table 1:” left out

[3] = tested on: human males with secondary hypogonadism; experiment: Serum P1NP-1 (biomarker of bone formation) by immunoassay; assay type: in vivo
Method: as §1, §2, §3

[4] = 12.5 mg Androxal daily oral, 3 months
[5] = 12.5 mg Androxal daily oral, 6 weeks
[6] = 12.5 mg Androxal daily oral, Baseline (before TxT)
[7] = 12.5 mg Androxal daily oral, Post TxT (one month after cessation)
[8] = 25 mg Androxal daily oral, 3 months
[9] = 25 mg Androxal daily oral, 6 weeks
[10] = 25 mg Androxal daily oral, Baseline (before TxT)
[11] = 25 mg Androxal daily oral, Post TxT (one month after cessation)

CCN(CC)CCOc1ccc(/C(=C(/Cl)c2ccccc2)c2ccccc2)cc1 [Androxal, trans-clomiphene]
decrease in serum CTX levels, 25 mg dose compared with 12.5 mg dose ([1]; 25 mg trans-clomiphene daily): much stronger | change in serum CTX levels ([1]; both trans-clomiphene dosages (12.5 mg and 25 mg daily), FIG. 2): decrease | increase in total hip BMD versus baseline (hypogonadal males): about 1.23% | serum estrogen levels after cessation of treatment compared with baseline ([2]; after cessation of trans-clomiphene treatment): remained elevated | change in serum estradiol 17β (E2) ([2]; daily administration of trans-clomiphene for 6 weeks and 3 months): significant increase | DHT [2, 4]: 20.4^ ng/DL | E2 [2, 4]: 56.7*¶ pg/mL | SHBG [2, 4]: 29.3 nmol/L | DHT [2, 5]: 22.7*^ ng/DL | E2 [2, 5]: 52.1*¶ pg/mL | SHBG [2, 5]: 28.6 nmol/L | DHT [2, 6]: 15 ng/dL | E2 [2, 6]: 20.8 pg/mL | SHBG [2, 6]: 24.7 nmol/L | DHT [2, 7]: 13.7 ng/dL | E2 [2, 7]: 39.1* pg/mL | SHBG [2, 7]: 24.9 nmol/L | DHT [2, 8]: 23.2*^ ng/DL | E2 [2, 8]: 46.3*¶ pg/mL | SHBG [2, 8]: 29.5 nmol/L | DHT [2, 9]: 22.2*^ ng/DL | E2 [2, 9]: 48.3*¶ pg/mL | SHBG [2, 9]: 32 nmol/L | DHT [2, 10]: 15.3 ng/dL | E2 [2, 10]: 24.7 pg/mL | SHBG [2, 10]: 26.4 nmol/L | DHT [2, 11]: 15.8 ng/dL | E2 [2, 11]: 40.2* pg/mL | SHBG [2, 11]: 28.7 nmol/L | change in serum P1NP-1 levels, 25 mg dose compared with 12.5 mg dose ([3]; 25 mg trans-clomiphene daily, dose dependency): more robust decrease | change in serum P1NP-1 levels ([3]; either dose of trans-clomiphene (12.5 mg or 25 mg daily), FIG. 1): decrease
